Assay results taken from PubChem BioAssay (NCI).
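A five-concentration, 48-hour dose response in 96-well plates underlies each endpoint, interpolated linearly between surrounding concentrations. TGI is the concentration that stops growth completely.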

Experiments:
Test in all cases: growth of human tumour cells (NCI), 48 h
K-562 leukemia = system: K-562 leukemia
NCI-H226 lung = system: NCI-H226 lung
SW-620 colon = system: SW-620 colon
A549 NSCLC = system: A549 NSCLC
IGROV1 ovarian = system: IGROV1 ovarian
NCI-H460 lung = system: NCI-H460 lung
OVCAR-5 ovarian = system: OVCAR-5 ovarian
786-0 renal = system: 786-0 renal
RPMI-8226 leukemia = system: RPMI-8226 leukemia
UACC-62 melanoma = system: UACC-62 melanoma
HL-60(TB) leukemia = system: HL-60(TB) leukemia
RXF 393 renal = system: RXF 393 renal

| Structure (SMILES) | TGI (K-562 leukemia) [µM] | TGI (NCI-H226 lung) [µM] | TGI (SW-620 colon) [µM] | TGI (A549 NSCLC) [µM] | TGI (IGROV1 ovarian) [µM] | TGI (NCI-H460 lung) [µM] | TGI (OVCAR-5 ovarian) [µM] | TGI (786-0 renal) [µM] | TGI (RPMI-8226 leukemia) [µM] | TGI (UACC-62 melanoma) [µM] | TGI (HL-60(TB) leukemia) [µM] | TGI (RXF 393 renal) [µM] |
| --- | --- | --- | --- | --- | --- | --- | --- | --- | --- | --- | --- | --- |
| C[C@@H]1C[C@@H](O)[C@@]2(O)C13CC(=O)OC(C3)[C@@H](C)[C@@]2(C)CO (stereo partly specified) | > 100 | > 100 | > 100 | > 100 | > 100 | > 100 | > 100 | > 100 | > 100 | > 100 | > 100 | > 100 |
| O=c1oc2ccccc2cc1-c1nnc(-c2ccccc2)s1 | > 100 | > 100 | > 100 | > 100 | > 66.3 | > 100 | > 100 | > 66.6 | > 100 | > 100 | 3.5 | > 54.6 |
| CC(=O)OCC1OC(n2c3c(c(-c4ccc(Cl)cc4)c(C#N)c2=S)C(=O)CC(C)(C)C3)C(OC(C)=O)C(OC(C)=O)C1OC(C)=O (stereo unspecified) | > 100 | > 81 | > 100 | > 100 | > 100 | > 100 | > 100 | > 88.7 | > 100 | 27.8 | > 61.1 | 68.8 |
| CC(=O)O[C@H]1C(=O)[C@@]2(C)[C@H]([C@H](OC(=O)c3ccc([N+](=O)[O-])cc3)[C@]3(O)C[C@H](OC(=O)[C@H](O)[C@@H](NC(=O)c4ccccc4)c4ccccc4)C(C)=C1C3(C)C)[C@]1(OC(C)=O)CO[C@@H]1C[C@@H]2O | > 25 | > 25 | > 25 | > 25 | > 25 | > 25 | > 25 | > 25 | > 25 | > 25 | > 25 | > 25 |
| COc1cccc(-c2cccc(SC)n2)n1 | > 100 | 31.6 | > 100 | > 100 | > 100 | > 100 | > 100 | 88.3 | 78.1 | > 100 | 31 | 63 |
| Cc1cnc2[nH]c(-c3ccc(F)cc3)cc(=O)c2c1 | 47 | > 84.5 | > 100 | > 100 | > 100 | > 100 | > 100 | > 100 | > 73.3 | > 100 | 20.4 | > 100 |
| O=C1SC(c2ccc(Cl)cc2)(c2ccc(Cl)cc2)c2ccccc21 | > 100 | > 100 | > 100 | > 100 | > 100 | > 100 | > 100 | > 100 | > 100 | > 100 | 96.6 | > 100 |
| C[C@]12CC(c3ccccc3O1)C(C#N)C(=O)N2 (stereo partly specified) | > 100 | > 100 | > 100 | > 100 | > 100 | > 100 | > 100 | > 100 | > 100 | > 100 | > 100 | > 100 |
| COc1ccc(/C=C2\N=C(c3ccccc3)N(Nc3nnc(NN4C(=O)/C(=C/c5ccc(OC)cc5)N=C4c4ccccc4)c4ccccc34)C2=O)cc1 | > 100 | > 100 | > 100 | > 100 | > 100 | > 100 | > 100 | > 100 | > 100 | > 100 | 61.4 | > 100 |
| C/C(=N\NS(=O)(=O)c1ccc(C)cc1)C(CN(C)C)C(c1ccccc1)c1c(O)c2ccccc2oc1=O (stereo unspecified) | > 100 | > 100 | > 100 | > 100 | > 100 | > 100 | > 100 | > 100 | > 100 | > 100 | > 100 | > 100 |
| COC1C=C(NCC2(CO)CCC2)NC(N)=N1 (stereo unspecified) | > 100 | > 100 | > 100 | > 100 | > 100 | > 100 | > 100 | > 100 | > 100 | > 100 | > 100 | > 100 |
| COc1ccc(OC)c(NC(=O)C(=O)Nn2c(=S)[nH]c3ccccc3c2=O)c1 | > 100 | > 100 | > 100 | > 100 | > 100 | > 100 | > 100 | > 100 | > 100 | > 100 | > 100 | > 100 |
| NC(=O)C12C3C4C1C1C2C3C41C(N)=O (stereo unspecified) | > 100 | > 100 | > 100 | > 100 | > 100 | > 100 | > 100 | > 100 | > 100 | > 100 | > 100 | > 100 |
